# Assays:
# Assay type in all cases: cell-based, human
# HS 578T (breast) = assay: NCI anticancer screen, SRB assay, 48 h
# Experimental: (§1) Some of biological activity studies were carried out at the National Cancer Institute (NCI), Maryland, USA.
# (§2) The compounds were evaluated for anticancer activity against fifty three human cancer cells derived from nine cancer types (leukemia cell line, non-small-cell lung cell line, colon cell line, CNS cell line, melanoma cell line, ovarian cell line, prostate cell line, and breast cancer cell line) as shown in Table 1. For each compound, dose response curves for each cell line were measured at a minimum of five concentrations at 10 fold dilutions. A protocol of 48 h continuous drug exposure was used and a sulforhodamine B (SRB) protein assay was used to estimate cell viability or growth.
# SK-MEL-5 (melanoma) = assay: NCI anticancer screen, SRB assay, 48 h
# Experimental: as §1, §2
# LOX IMVI (melanoma) = assay: NCI anticancer screen, SRB assay, 48 h
# Experimental: as §1, §2
# HCC-2998 (colon) = assay: NCI anticancer screen, SRB assay, 48 h
# Experimental: as §1, §2
# TK-10 (renal) = assay: NCI anticancer screen, SRB assay, 48 h
# Experimental: as §1, §2
# SW-620 (colon) = assay: NCI anticancer screen, SRB assay, 48 h
# Experimental: as §1, §2
# HCT-15 (colon) = assay: NCI anticancer screen, SRB assay, 48 h
# Experimental: as §1, §2
# MDA-MB-231/ATCC (breast) = assay: NCI anticancer screen, SRB assay, 48 h
# Experimental: as §1, §2
# MDA-MB-435 (melanoma) = assay: NCI anticancer screen, SRB assay, 48 h
# Experimental: as §1, §2
# A498 (renal) = assay: NCI anticancer screen, SRB assay, 48 h
# Experimental: as §1, §2
# SN12C (renal) = assay: NCI anticancer screen, SRB assay, 48 h
# Experimental: as §1, §2
# BT-549 (breast) = assay: NCI anticancer screen, SRB assay, 48 h
# Experimental: as §1, §2
# [1] = tested on: NCI-H460 (non-small cell lung); assay: NCI anticancer screen, SRB assay, 48 h
# Experimental: as §1, §2
# SF-295 (CNS) = assay: NCI anticancer screen, SRB assay, 48 h
# Experimental: as §1, §2
# OVCAR-5 (ovarian) = assay: NCI anticancer screen, SRB assay, 48 h
# Experimental: as §1, §2
# U251 (CNS) = assay: NCI anticancer screen, SRB assay, 48 h
# Experimental: as §1, §2
# 786-0 (renal) = assay: NCI anticancer screen, SRB assay, 48 h
# Experimental: as §1, §2
# MCF7 (breast) = assay: NCI anticancer screen, SRB assay, 48 h
# Experimental: as §1, §2
# SF-539 (CNS) = assay: NCI anticancer screen, SRB assay, 48 h
# Experimental: as §1, §2
# SF-268 (CNS) = assay: NCI anticancer screen, SRB assay, 48 h
# Experimental: as §1, §2
# [2] = tested on: K-562 (leukemia cell line); assay: NCI anticancer screen, SRB assay, 48 h
# Experimental: as §1, §2
# [3] = tested on: Ovarian cancer cell lines; assay: NCI anticancer screen, SRB assay, panel summary
# Experimental: as §1, §2
# Colon cancer cell lines = assay: NCI anticancer screen, SRB assay, panel summary; conditions: Colon panel
# Experimental: as §1, §2
# [4] = tested on: Melanoma cancer cell lines; assay: NCI anticancer screen, SRB assay, panel summary; conditions: Melanoma panel
# Experimental: as §1, §2
# Renal cancer cell lines = assay: NCI anticancer screen, SRB assay, panel summary
# Experimental: as §1, §2
# [5] = tested on: Leukemia cancer cell lines; assay: NCI anticancer screen, SRB assay, panel summary; conditions: Leukemia panel
# Experimental: as §1, §2
# [6] = tested on: Non-small cell lung cancer cell lines; assay: NCI anticancer screen, SRB assay, panel summary
# Experimental: as §1, §2
# Breast cancer cell lines = assay: NCI anticancer screen, SRB assay, panel summary
# Experimental: as §1, §2
# CNS cancer cell lines = assay: NCI anticancer screen, SRB assay, panel summary; conditions: CNS panel
# Experimental: as §1, §2
# [7] = 48 h exposure, SRB, read-out: GI50
# [8] = log of concentration in mol/L causing 50% inhibition of net cell growth
# [9] = log of concentration leading to 50% net cell death
# [10] = log of concentration resulting in total inhibition of net cell growth
structure (smiles),measurement,setting,value
"COc1cc(/C=C/C(=O)c2cccc(-n3cc(-c4ccc(Cl)cc4)[nH]c3=O)c2)cc(OC)c1OC [5f, 4-(4-chlorophenyl)-1-3-[(E)-3-(3,4,5-trimethoxyphenyl)-2-propenoyl]phenyl-2,3-dihydro-1H-2-imidazolone]",pGI50 (-log of molar concentration causing 50% inhibition of net cell growth),HS 578T (breast),5.22
same,GI50,HS 578T (breast); [7],5.96 µM
same,pGI50 (-log of molar concentration causing 50% inhibition of net cell growth),SK-MEL-5 (melanoma),5.06
same,GI50,SK-MEL-5 (melanoma); [7],8.7 µM
same,pGI50 (-log of molar concentration causing 50% inhibition of net cell growth),LOX IMVI (melanoma),5.76
same,GI50,LOX IMVI (melanoma); [7],1.72 µM
same,pGI50 (-log of molar concentration causing 50% inhibition of net cell growth),HCC-2998 (colon),5.61
same,GI50,HCC-2998 (colon); [7],2.46 µM
same,pGI50 (-log of molar concentration causing 50% inhibition of net cell growth),TK-10 (renal),5.19
same,GI50,TK-10 (renal); [7],6.46 µM
same,pGI50 (-log of molar concentration causing 50% inhibition of net cell growth),SW-620 (colon),5.76
same,GI50,SW-620 (colon); [7],1.75 µM
same,pGI50 (-log of molar concentration causing 50% inhibition of net cell growth),HCT-15 (colon),5.41
same,GI50,HCT-15 (colon); [7],3.85 µM
same,pGI50 (-log of molar concentration causing 50% inhibition of net cell growth),MDA-MB-231/ATCC (breast),4.86
same,GI50,MDA-MB-231/ATCC (breast); [7],13.8 µM
same,pGI50 (-log of molar concentration causing 50% inhibition of net cell growth),MDA-MB-435 (melanoma),5.44
same,GI50,MDA-MB-435 (melanoma); [7],3.63 µM
same,pGI50 (-log of molar concentration causing 50% inhibition of net cell growth),A498 (renal),4.52
same,GI50,A498 (renal); [7],30.2 µM
same,pGI50 (-log of molar concentration causing 50% inhibition of net cell growth),SN12C (renal); SN 12C,5.29
same,GI50,"SN12C (renal); SN12C, 48 h exposure, SRB, read-out: GI50",5.14 µM
same,pGI50 (-log of molar concentration causing 50% inhibition of net cell growth),BT-549 (breast),4.91
same,GI50,BT-549 (breast); [7],12.3 µM
same,pGI50 (-log of molar concentration causing 50% inhibition of net cell growth),[1],5.43
same,GI50,[1]; [7],3.74 µM
same,pGI50 (-log of molar concentration causing 50% inhibition of net cell growth),SF-295 (CNS),4.61
same,GI50,SF-295 (CNS); [7],24.3 µM
same,pGI50 (-log of molar concentration causing 50% inhibition of net cell growth),OVCAR-5 (ovarian),5.51
same,GI50,OVCAR-5 (ovarian); [7],3.11 µM
same,pGI50 (-log of molar concentration causing 50% inhibition of net cell growth),U251 (CNS),5.67
same,GI50,U251 (CNS); [7],2.12 µM
same,pGI50 (-log of molar concentration causing 50% inhibition of net cell growth),786-0 (renal),5.67
same,GI50,786-0 (renal); [7],2.14 µM
same,pGI50 (-log of molar concentration causing 50% inhibition of net cell growth),MCF7 (breast),5.76
same,GI50,MCF7 (breast); [7],1.74 µM
same,pGI50 (-log of molar concentration causing 50% inhibition of net cell growth),SF-539 (CNS),5.46
same,GI50,SF-539 (CNS); [7],3.49 µM
same,pGI50 (-log of molar concentration causing 50% inhibition of net cell growth),SF-268 (CNS),5.29
same,GI50,SF-268 (CNS); [7],5.07 µM
same,pGI50 (-log of molar concentration causing 50% inhibition of net cell growth),[2],5.43
same,GI50,[2]; [7],3.69 µM
same,mean graph midpoint (MG_MID) of Log10 LC50,[3],4.22
same,mean graph midpoint (MG_MID) of Log10 GI50,"[3]; Ovarian panel, log of concentration in mol/L causing 50% inhibition of net cell growth",5.26
same,mean graph midpoint (MG_MID) of Log10 TGI,"[3]; Ovarian panel, log of concentration resulting in total inhibition of net cell growth",4.62
same,mean graph midpoint (MG_MID) of Log10 GI50,Colon cancer cell lines; [8],5.53
same,mean graph midpoint (MG_MID) of Log10 LC50,Colon cancer cell lines; [9],4.76
same,mean graph midpoint (MG_MID) of Log10 TGI,Colon cancer cell lines; [10],5.15
same,mean graph midpoint (MG_MID) of Log10 GI50,[4]; [8],5.17
same,mean graph midpoint (MG_MID) of Log10 LC50,[4]; [9],4.24
same,mean graph midpoint (MG_MID) of Log10 TGI,[4]; [10],4.56
same,mean graph midpoint (MG_MID) of Log10 LC50,Renal cancer cell lines,3.73
same,mean graph midpoint (MG_MID) of Log10 GI50,"Renal cancer cell lines; Renal panel, log of concentration in mol/L causing 50% inhibition of net cell growth",5.15
same,mean graph midpoint (MG_MID) of Log10 TGI,"Renal cancer cell lines; Renal panel, log of concentration resulting in total inhibition of net cell growth",4.55
same,mean graph midpoint (MG_MID) of Log10 GI50,[5]; [8],5.42
same,mean graph midpoint (MG_MID) of Log10 TGI,[5]; [10],4.00
same,mean graph midpoint (MG_MID) of Log10 LC50,[6],4.06
same,mean graph midpoint (MG_MID) of Log10 GI50,"[6]; Non-small cell lung panel, log of concentration in mol/L causing 50% inhibition of net cell growth",4.72
same,mean graph midpoint (MG_MID) of Log10 TGI,"[6]; Non-small cell lung panel, log of concentration resulting in total inhibition of net cell growth",4.28
same,mean graph midpoint (MG_MID) of Log10 LC50,Breast cancer cell lines,4.11
same,mean graph midpoint (MG_MID) of Log10 GI50,"Breast cancer cell lines; Breast panel, log of concentration in mol/L causing 50% inhibition of net cell growth",5.18
same,mean graph midpoint (MG_MID) of Log10 TGI,"Breast cancer cell lines; Breast panel, log of concentration resulting in total inhibition of net cell growth",4.38
same,mean graph midpoint (MG_MID) of Log10 GI50,CNS cancer cell lines; [8],5.08
same,mean graph midpoint (MG_MID) of Log10 LC50,CNS cancer cell lines; [9],4.24
same,mean graph midpoint (MG_MID) of Log10 TGI,CNS cancer cell lines; [10],4.50

# — patent US8889874B2, “Imidazolone-chalcone derivatives as potential anticancer agent and process for the preparation thereof” (Council of Scientific and Industrial Research, priority 2010, dated 2014)
